Experimental data taken from ChEMBL document CHEMBL4414648, “Novel Benzohydroxamate-Based Potent and Selective Histone Deacetylase 6 (HDAC6) Inhibitors Bearing a Pentaheterocyclic Scaffold: Design, Synthesis, and Biological Evaluation” (J Med Chem, 2019).
Calls of active or inactive are those of the source. The calls are words filed in the database; no cut-off is given here.

Tests used:
[1] = Toxicity in C57BL/6 mouse assessed as induction of diarrhea up to 50 mg/kg, ip administered for 5 days/week for two cycles and measured daily starting from day 1; type: organism-based; details: in vivo, 120 h
[2] = Total AUC in CD-1 mouse at 5.2 mg/kg, po measured within 6 hrs by LC-MS/MS analysis; type: ADME, organism-based; design: dose 5.2 mg/kg, route oral, time AUCmax; details: in vivo
Mus musculus [3] = assay: In vivo inhibition of HDAC in C57BL/6 mouse assessed as increase in acetylated-histone H3 level in spleen nuclear protein extracts at 30 mg/kg, ip measured after 60 mins by sandwich ELISA relative to control; type: organism-based; details: 1 h
[4] = Toxicity in C57BL/6 mouse assessed as effect on grooming up to 50 mg/kg, ip administered for 5 days/week for two cycles; type: organism-based; details: in vivo, 120 h
[5] = Toxicity in C57BL/6 mouse assessed as effect on postural changes up to 50 mg/kg, ip administered for 5 days/week for two cycles and measured daily starting from day 1; type: organism-based; details: in vivo, 120 h
[6] = Apparent volume of distribution at steady state in CD-1 mouse at […], iv measured within 6 hrs by LC-MS/MS analysis; type: ADME, organism-based; details: in vivo, read-out: Vdss(app)
[7] = Selectivity ratio of IC50 for N-terminal GST-tagged human HDAC7 (518 to end residues) expressed in baculovirus infected sf9 insect cells to IC50 for human N-terminal GST-tagged HDAC6 expressed in baculovirus infected sf9 insect cells
[8] = Selectivity ratio of IC50 for C-terminal His-tagged human HDAC9 (604 to 1066 residues) expressed in baculovirus infected sf9 insect cells to IC50 for human N-terminal GST-tagged HDAC6 expressed in baculovirus infected sf9 insect cells
[9] = Stability in rat plasma assessed as parent compound remaining at 100 uM after 4 hrs by LC-MS/MS analysis; type: ADME, cell-free; details: read-out: Stability
[10] = target: T1, Protein deacetylase HDAC6 (Homo sapiens) (UniProt Q9UBN7); assay: Inhibition of HDAC6 in HEK293 cells harboring human Foxp3 assessed as induction of Foxp3 hyperacetylation in whole cell lysates at 500 nM incubated for 6 hrs by SDS-PAGE based Western blot analysis; type: subcellular; details: Lysate
T1 sequence (whole entry): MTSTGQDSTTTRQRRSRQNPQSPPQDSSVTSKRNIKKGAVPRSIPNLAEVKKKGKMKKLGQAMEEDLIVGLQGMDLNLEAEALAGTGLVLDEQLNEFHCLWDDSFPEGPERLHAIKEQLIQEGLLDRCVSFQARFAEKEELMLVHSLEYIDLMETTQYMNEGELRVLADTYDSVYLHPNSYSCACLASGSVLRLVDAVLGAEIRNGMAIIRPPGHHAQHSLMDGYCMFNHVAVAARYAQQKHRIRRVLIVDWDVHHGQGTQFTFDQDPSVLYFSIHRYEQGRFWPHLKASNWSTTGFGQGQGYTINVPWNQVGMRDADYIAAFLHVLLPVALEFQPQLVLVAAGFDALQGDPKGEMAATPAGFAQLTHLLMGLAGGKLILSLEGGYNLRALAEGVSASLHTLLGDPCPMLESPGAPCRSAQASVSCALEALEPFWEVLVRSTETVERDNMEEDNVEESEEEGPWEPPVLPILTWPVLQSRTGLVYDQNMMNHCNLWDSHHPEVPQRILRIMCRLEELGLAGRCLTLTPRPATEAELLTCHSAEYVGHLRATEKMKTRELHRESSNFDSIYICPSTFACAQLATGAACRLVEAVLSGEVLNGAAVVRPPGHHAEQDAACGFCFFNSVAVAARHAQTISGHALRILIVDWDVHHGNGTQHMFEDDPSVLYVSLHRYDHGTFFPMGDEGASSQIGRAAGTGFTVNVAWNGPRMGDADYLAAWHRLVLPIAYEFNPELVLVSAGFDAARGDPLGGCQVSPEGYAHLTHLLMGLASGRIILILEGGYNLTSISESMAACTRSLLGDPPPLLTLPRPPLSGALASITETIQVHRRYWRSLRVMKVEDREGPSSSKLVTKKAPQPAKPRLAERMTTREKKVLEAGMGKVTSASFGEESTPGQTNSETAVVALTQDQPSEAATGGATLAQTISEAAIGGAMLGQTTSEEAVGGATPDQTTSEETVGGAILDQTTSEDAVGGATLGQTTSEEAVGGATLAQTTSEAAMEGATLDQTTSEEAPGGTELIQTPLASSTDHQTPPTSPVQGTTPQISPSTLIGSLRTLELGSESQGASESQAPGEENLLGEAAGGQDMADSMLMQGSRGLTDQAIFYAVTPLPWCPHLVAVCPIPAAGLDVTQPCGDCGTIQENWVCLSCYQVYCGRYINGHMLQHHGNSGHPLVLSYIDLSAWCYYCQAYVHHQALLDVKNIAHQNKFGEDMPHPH

[11] = Toxicity in C57BL/6 mouse assessed as effect on body temperature up to 50 mg/kg, ip administered for 5 days/week for two cycles and measured daily starting from day 1; type: organism-based; details: in vivo, 120 h
[12] = Inhibition of C57BL/6 mouse effector T cells proliferation at 1 uM after 72 hrs in absence of regulatory T cells by CFSE dye based flow cytometric assay relative to control
Mus musculus [13] = assay: In vivo inhibition of HDAC6 in C57BL/6 mouse assessed as increase in acetylated tubulin level in spleen cytosolic protein extract at 30 mg/kg, ip measured after 60 mins by ELISA relative to control; type: functional
[14] = Inhibition of C57BL/6 mouse effector T cells proliferation at 500 nM after 72 hrs in absence of regulatory T cells by CFSE dye based flow cytometric assay relative to control
[15] = Toxicity in C57BL/6 mouse assessed as effect on body weight at 10 mg/kg, ip administered for 5 days/week for two cycles and measured every other day relative to control; type: organism-based; details: in vivo, 120 h
697 = assay: Cytotoxicity against human 697 cells after 48 hrs by CellTiter 96 aqueous one solution assay; type: cell-based; details: Homo sapiens, 697, 48 h
[16] = Toxicity in C57BL/6 mouse assessed as effect on social behavior up to 50 mg/kg, ip administered for 5 days/week for two cycles; type: organism-based; details: in vivo, 120 h
[17] = Toxicity in C57BL/6 mouse assessed as effect on stool up to 50 mg/kg, ip administered for 5 days/week for two cycles and measured daily starting from day 1; type: organism-based; details: in vivo, 120 h
[18] = Toxicity in C57BL/6 mouse assessed as effect on spasms up to 50 mg/kg, ip administered for 5 days/week for two cycles and measured daily starting from day 1; type: organism-based; details: in vivo, 120 h
[19] = Toxicity in C57BL/6 mouse assessed as induction of leukopenia up to 50 mg/kg, ip administered for 5 days/week for two cycles; type: organism-based; details: in vivo, 120 h
[20] = Toxicity in C57BL/6 mouse assessed as effect on WBC level at 10 mg/kg, ip administered for 5 days/week for two cycles and measured 60 mins post last dose by beckman coulter counting method relative to control; type: organism-based; details: in vivo, 1 h
[21] = Selectivity ratio of IC50 for N-terminal His-tagged human HDAC11 expressed in baculovirus expression system to IC50 for human N-terminal GST-tagged HDAC6 expressed in baculovirus infected sf9 insect cells

For Cn1c(Sc2ccc(C(=O)NO)cc2)nnc1-c1cccs1, the Activity [1] was “Non-Toxic”, the AUC at 6 h [2] was 123 ng·h/mL and the “fold change (FC)” value (Mus musculus [3]) was 3. For the same compound, the Activity [4] was “Non-Toxic”, the Activity [5] was “Non-Toxic” and the Vd at 6 h [6] was 5.4 L/kg. The “Ratio IC50” value [7] was 99, the “Ratio IC50” value [8] was 132 and the remaining at 4 h, 100 µM [9] was 86%. For the same compound, the inhibition [10] was “Active”, the Activity [11] was “Non-Toxic” and the inhibition at 72 h, 1 µM [12] was under 5%. The “fold change (FC)” value (Mus musculus [13]) was 10, the inhibition at 72 h, 0.5 µM [14] was under 0.5% and the Activity [15] was 2.8%. For the same compound, the IC50 697 was over 1000 nM, the Activity [16] was “Non-Toxic” and the Activity [17] was “Non-Toxic”. The Activity [18] was “Non-Toxic”, the Activity [19] was “Toxic” and the Activity [20] was 1%. The “Ratio IC50” value [21] was 119.
